Experiments:
[1] = test system: HCl-ethanol induced ulcer; test: Antiulcer activity (HCl-ethanol ulcer), oral administration; format: in vivo; settings: rats, inhibition of ulcer coefficient vs control; for Inhibitation Rate (%): dose 5 mg/kg orally one hour before HCl-ethanol
Experimental: Antiulcer activity (HCl-ethanol ulcer) 1.5 ml of 60% ethanol aqueous solution containing 150 mM of hydrochloric acid was orally administered to rats. One hour thereafter the rats were sacrificed and the length (mm) of HCl-ethanol induced ulcer generated at the mucosa of the stomach was measured. The sum of the ulcer length per animal is defined as ulcer coefficient. Specimens each was orally administered one hour before the HCl-ethanol administration. Inhibition rate was calculated by dividing the difference in ulcer coefficient between the control group and the specimen-administered group by the ulcer coefficient of the control group.

[2] = Acute toxicity through oral administration; settings: mouse, in vivo, male ICR-strain mice (5 weeks old), read-out: LD₅₀
Experimental: Acute toxicity tests through oral administration were carried out using male ICR-strain mice (5 weeks old).
The LD₅₀ values of the compound (1) of the present invention was 2000 mg/kg or more and thus higher saftety as compared with the effective amount was ascertained.

Row | Compound | Inhibitation Rate (%) [1] [%] | further results
1 | S=C(SSC(=S)N1CCOCC1)N1CCOCC1 [Compound Number (1)] | 93.7 | LD50 [2]: ≥ 2000 mg/kg
2 | CC1CN(C(=S)SSC(=S)N2CC(C)OC(C)C2)CC(C)O1 (centres unmarked) [Compound Number (2)] | 81.7 | 
3 | OCCN1CCN(C(=S)SSC(=S)N2CCN(CCO)CC2)CC1 [Compound Number (3)] | 24.3 | 
4 | S=C(SSC(=S)N1CCCCC1)N1CCCCC1 [Compound Number (4)] | 64.1 | 
5 | OCCC1CCN(C(=S)SSC(=S)N2CCC(CCO)CC2)CC1 [Compound Number (5), bis[[4-(2-hydroxyethyl)piperidiono]thiocarbonyl]disulfide] | 37.4 | 
6 | CC(=O)c1ccc2c(c1)C(=O)C1(CC1)O2 [Spizofurone, reference compound] |  | Inhibiton Rate (%) ([1]; dose 100 mg/kg orally one hour before HCl-ethanol): 86.6%
7 | Teprenone [reference compound] |  | Inhibiton Rate (%) ([1]; dose 25 mg/kg orally one hour before HCl-ethanol): 48.9%

— patent publication EP0411593A2, “Use of bis (aminothiocarbonyl) disulfide for treating ulcer” (KURARAY CO., LTD., priority 1989, dated 1991)
